BindingDB's records for patent US10196390 (Nimbus Lakshmi, Inc., 2019)

Biological target: Tyrosine-protein kinase JAK2 (Homo sapiens, UniProt O60674)
Sequence (O60674 whole entry): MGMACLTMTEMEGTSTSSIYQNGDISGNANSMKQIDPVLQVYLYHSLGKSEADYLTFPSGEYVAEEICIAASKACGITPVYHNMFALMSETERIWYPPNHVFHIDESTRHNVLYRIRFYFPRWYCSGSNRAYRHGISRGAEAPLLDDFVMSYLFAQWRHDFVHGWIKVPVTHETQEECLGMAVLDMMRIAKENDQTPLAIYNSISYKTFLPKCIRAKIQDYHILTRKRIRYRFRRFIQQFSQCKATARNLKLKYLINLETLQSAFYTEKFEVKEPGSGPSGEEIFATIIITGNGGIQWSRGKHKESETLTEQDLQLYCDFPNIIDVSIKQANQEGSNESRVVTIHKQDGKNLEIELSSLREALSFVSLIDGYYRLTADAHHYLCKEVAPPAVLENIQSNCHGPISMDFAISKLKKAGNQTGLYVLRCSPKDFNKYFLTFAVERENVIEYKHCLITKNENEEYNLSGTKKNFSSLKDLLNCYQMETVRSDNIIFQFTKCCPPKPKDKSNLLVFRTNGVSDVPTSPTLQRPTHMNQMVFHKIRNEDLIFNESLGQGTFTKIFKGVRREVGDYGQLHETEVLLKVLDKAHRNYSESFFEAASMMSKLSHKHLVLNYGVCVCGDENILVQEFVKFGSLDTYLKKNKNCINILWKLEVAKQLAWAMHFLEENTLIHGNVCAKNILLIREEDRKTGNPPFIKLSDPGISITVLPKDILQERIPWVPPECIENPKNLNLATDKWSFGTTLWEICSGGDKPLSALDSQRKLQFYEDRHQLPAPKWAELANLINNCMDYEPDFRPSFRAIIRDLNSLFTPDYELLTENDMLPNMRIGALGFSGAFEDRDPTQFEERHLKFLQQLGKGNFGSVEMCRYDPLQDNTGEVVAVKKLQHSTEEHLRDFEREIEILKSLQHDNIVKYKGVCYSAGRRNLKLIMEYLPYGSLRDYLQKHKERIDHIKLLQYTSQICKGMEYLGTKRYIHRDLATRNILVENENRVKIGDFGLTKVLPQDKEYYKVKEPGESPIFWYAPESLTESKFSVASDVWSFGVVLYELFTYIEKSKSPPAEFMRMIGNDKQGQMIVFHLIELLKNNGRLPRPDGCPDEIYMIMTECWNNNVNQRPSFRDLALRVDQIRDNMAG

Ki [nM] | Compound
> 1000 | COC(=O)Cc1ncc(Nc2nc(-c3c(F)cccc3F)nc3c2C(=O)NC3)cn1 [US10196390, Compound I-166]
> 1000 | CCNC(=O)Cc1ncc(Nc2nc(-c3c(F)cccc3F)nc3c2C(=O)NC3)cn1 [US10196390, Compound I-169]
> 1000 | O=C1NCc2nc(-c3c(F)cccc3F)nc(Nc3ccc(OC(F)(F)F)cc3)c21 [US10196390, Compound I-184]
> 1000 | O=C1NCc2nc(-c3c(F)cccc3F)nc(Nc3ccc(C4CCCCC4)cc3)c21 [US10196390, Compound I-197]
> 1000 | O=C1NCc2nc(-c3c(F)cccc3F)cc(Nc3ccc(N4CCCC4)cn3)c21 [US10196390, Compound I-205]
> 1000 | O=C1NCc2nc(-c3c(F)cccc3F)cc(Nc3ccc(N4CCC5(CC5)C4)cn3)c21 [US10196390, Compound I-233]
< 10 | O=C1NCc2nc(-c3c(F)cccc3F)cc(Nc3ccc(F)cn3)c21 [US10196390, Compound I-234]
> 1000 | O=C1NCc2nc(-c3c(F)cccc3F)nc(Nc3ccc(S(=O)(=O)C(F)(F)F)cc3)c21 [US10196390, Compound I-236]
< 10 | CC(C)N1CCN(c2ccc(Nc3cc(-c4c(F)cccc4F)nc4c3C(=O)NC4)nc2)CC1 [US10196390, Compound I-256]
< 10 | COc1ccc(Nc2cc(-c3c(F)cccc3C#N)nc3c2C(=O)NC3)nc1 [US10196390, Compound I-258]
< 10 | CCN(CC)C(=O)c1ccc(Nc2cc(-c3c(F)cccc3F)nc3c2C(=O)NC3)cc1 [US10196390, Compound I-259]
< 10 | C[C@H]1COC[C@H](C)N1c1ccc(Nc2cc(-c3c(F)cccc3F)nc3c2C(=O)NC3)nc1 [US10196390, Compound I-264]
< 10 | CC1(C)CCC(=O)N1c1ccc(Nc2cc(-c3c(F)cccc3F)nc3c2C(=O)NC3)nc1 [US10196390, Compound I-272]
< 10 | CN(c1ccc(Nc2cc(-c3c(F)cccc3F)nc3c2C(=O)NC3)nc1)C(C)(C)C [US10196390, Compound I-274]
< 10 | O=C1NCc2nc(-c3c(F)cccc3F)cc(Nc3ccc(NS(=O)(=O)C(F)F)cn3)c21 [US10196390, Compound I-277]
< 10 | CC(C)(C)Nc1ccc(Nc2cc(-c3c(F)cccc3F)nc3c2C(=O)NC3)nc1 [US10196390, Compound I-278]
< 10 | CCNC(=O)c1ccc(Nc2cc(-c3c(F)cccc3C#N)nc3c2C(=O)NC3)nc1 [US10196390, Compound I-282]
< 10 | O=C1NCc2nc(-c3c(F)cccc3F)cc(Nc3ccc(C(=O)N4CCC(F)(F)CC4)cc3)c21 [US10196390, Compound I-283]
< 10 | C[C@@H]1COC[C@@H](C)N1C(=O)c1ccc(Nc2cc(-c3c(F)cccc3F)nc3c2C(=O)NC3)cc1 [US10196390, Compound I-285]
< 10 | N#Cc1cccc(F)c1-c1cc(Nc2ccc(C(=O)N3CCOCC3)cc2)c2c(n1)CNC2=O [US10196390, Compound I-287]
< 10 | CC1CC(O)CC(C)N1c1ccc(Nc2cc(-c3c(F)cccc3F)nc3c2C(=O)NC3)nc1 (stereo not drawn) [US10196390, Compound I-288]
> 1000 | Cc1ccc(Nc2nc(-c3c(F)cccc3F)nc3c2C(=O)NC3)cc1F [US10196390, Compound I-292]

Compound | Ki [nM]
Cc1ccc(Nc2nc(-c3c(F)cccc3F)nc3c2C(=O)NC3)cc1 [US10196390, Compound I-21] | > 1000
